{
  "source": "patent US10131652B2",
  "about": "“Pyrimidinyloxy benzene derivatives as herbicides” (E. I. DU PONT DE NEMOURS AND COMPANY, priority 2014, dated 2018)",
  "experiment_in_all_cases": "Test A pre-/postemergence plant response",
  "type_in_all_cases": "in vivo",
  "settings_in_all_cases": "0 to 100 scale, 0 is no effect, 100 is complete control",
  "key": {"[1]": {"test_system": "large (Lg) crabgrass (Digitaria sanguinalis)", "from_the_text": "(§1) Seeds of plant species selected from downy bromegrass (Bromus tectorum), cocklebur (common cocklebur, Xanthium strumarium), wild oat (Avena fatua), barnyardgrass (Echinochloa crus-galli), large (Lg) crabgrass (Digitaria sanguinalis), giant foxtail (Setaria faberii), morningglory (Ipomoea spp.), velvetleaf (Abutilon theophrasti), and sorghum (Sorghum vulgare) were planted into a sandy loam soil and treated preemergence by soil drench using test a chemical formulated in a non-phytotoxic solvent mixture which included a surfactant. At the same time these species were also treated postemergence sprayed to runoff using a test chemical formulated in the same manner. Plants ranged in height from 2 to 18 cm and were in the one- to two-leaf stage for the postemergence treatment. Treated plants and untreated controls were maintained in a greenhouse for approximately 11 days, after which time all treated plants were compared to untreated controls and visually evaluated for injury. Plant response ratings, summarized in Table A, are based on a 0 to 100 scale where 0 is no effect and 100 is complete control. A dash (-) response means no test result."}, "[2]": {"test_system": "wild oat (Avena fatua)", "from_the_text": "as §1"}, "[3]": {"test_system": "morningglory (Ipomoea spp.)", "from_the_text": "as §1"}, "[4]": {"test_system": "sorghum (Sorghum vulgare)", "from_the_text": "as §1"}, "[5]": {"test_system": "giant foxtail (Setaria faberii)", "from_the_text": "as §1"}, "[6]": {"test_system": "barnyardgrass (Echinochloa crus-galli)", "from_the_text": "as §1"}, "[7]": {"test_system": "velvetleaf (Abutilon theophrasti)", "from_the_text": "as §1"}, "[8]": {"test_system": "cocklebur (common cocklebur, Xanthium strumarium)", "from_the_text": "as §1"}, "[9]": {"test_system": "downy bromegrass (Bromus tectorum)", "from_the_text": "as §1"}, "[10]": {"settings": "1000 g ai/ha, Post Sprayed to Runoff"}},
  "data": [
    {"smiles": "Cc1ccc(Oc2ncc(Cl)cn2)c(-c2cccc(C(F)(F)F)c2)c1", "note": "[Compound 39]", "values": [
      {"measurement": "Plant response rating, Crabgrass, Large", "setting": "[1]; [10]", "value": 50},
      {"measurement": "Plant response rating, Crabgrass, Large", "setting": "[1]; 2000 g ai/ha, Pre Soil Drench", "value": 90},
      {"measurement": "Plant response rating, Oat, Wild", "setting": "[2]; [10]", "value": 20},
      {"measurement": "Plant response rating, Oat, Wild", "setting": "[2]; 2000 g ai/ha, Pre Soil Drench", "value": 90},
      {"measurement": "Plant response rating, Morningglory", "setting": "[3]; [10]", "value": 30},
      {"measurement": "Plant response rating, Morningglory", "setting": "[3]; 2000 g ai/ha, Pre Soil Drench", "value": 0},
      {"measurement": "Plant response rating, Sorghum", "setting": "[4]; [10]", "value": 30},
      {"measurement": "Plant response rating, Sorghum", "setting": "[4]; 2000 g ai/ha, Pre Soil Drench", "value": 50},
      {"measurement": "Plant response rating, Foxtail, Giant", "setting": "[5]; [10]", "value": 30},
      {"measurement": "Plant response rating, Foxtail, Giant", "setting": "[5]; 2000 g ai/ha, Pre Soil Drench", "value": 100},
      {"measurement": "Plant response rating, Barnyardgrass", "setting": "[6]; [10]", "value": 50},
      {"measurement": "Plant response rating, Barnyardgrass", "setting": "[6]; 2000 g ai/ha, Pre Soil Drench", "value": 90},
      {"measurement": "Plant response rating, Velvetleaf", "setting": "[7]; [10]", "value": 60},
      {"measurement": "Plant response rating, Velvetleaf", "setting": "[7]; 2000 g ai/ha, Pre Soil Drench", "value": 70},
      {"measurement": "Plant response rating, Cocklebur", "setting": "[8]; [10]", "value": 40},
      {"measurement": "Plant response rating, Cocklebur", "setting": "[8]; 2000 g ai/ha, Pre Soil Drench", "value": 0},
      {"measurement": "Plant response rating, Bromegrass, Downy", "setting": "[9]; [10]", "value": 20},
      {"measurement": "Plant response rating, Bromegrass, Downy", "setting": "[9]; 2000 g ai/ha, Pre Soil Drench", "value": 70}
    ]}
  ]
}
